Data: ChEMBL document CHEMBL1201862, “PubChem BioAssay data set” (2004)
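Values below derive from 48-hour exposures of cells grown in 96-well plates, with endpoints linearly interpolated between the two concentrations bracketing the appropriate inhibition level. The concentration for 50% growth inhibition is given as GI50.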 Activity calls are given as the source filed them. Rule as the data show it: active = GI50 up to about 1.1 µM and inactive = higher.

Key:
Experiment in all cases: NCI-60 cell line screen, 48 h
[1] = test system: ACHN
[2] = test system: CCRF-CEM
[3] = test system: Hs-578T
[4] = test system: SNB-19
[5] = test system: SF-539
[6] = test system: EKVX
[7] = test system: SK-MEL-5
[8] = test system: SK-MEL-28
[9] = test system: K562
[10] = test system: M14
[11] = test system: Malme-3M
[12] = test system: SK-OV-3
[13] = test system: MDA-MB-435
[14] = test system: U-251
[15] = test system: SN12C
[16] = test system: SW-620
[17] = test system: A498
[18] = test system: IGROV-1
[19] = test system: NCI-H522

Compound	GI50 [1]	GI50 [2]	GI50 [3]	GI50 [4]	GI50 [5]	GI50 [6]	GI50 [7]	GI50 [8]	GI50 [9]	GI50 [10]	GI50 [11]	GI50 [12]	GI50 [13]	GI50 [14]	GI50 [15]	GI50 [16]	GI50 [17]	GI50 [18]	GI50 [19]
N=C(N)N/N=C/c1c(-c2ccc([N+](=O)[O-])cc2)nc2sccn12	2.64 µM (inactive)	0.673 µM (active)	1.89 µM (inactive)	1.38 µM (inactive)	1.77 µM (inactive)	1.8 µM (inactive)	3.23 µM (inactive)	1.94 µM (inactive)	0.973 µM (active)	1.91 µM (inactive)	1.95 µM (inactive)	1.64 µM (inactive)	1.5 µM (inactive)	1.58 µM (inactive)	1.77 µM (inactive)	0.706 µM (active)	1.73 µM (inactive)	8.63 µM (inactive)	2 µM (inactive)
O=C1c2ccccc2-c2nc(-c3cccnc3)cc3c2c1nc1ccccc13	> 100 µM (inactive)	26.5 µM (inactive)	> 100 µM (inactive)	> 100 µM (inactive)	> 100 µM (inactive)	> 100 µM (inactive)	–	> 100 µM (inactive)	> 100 µM (inactive)	14.3 µM (inactive)	92.9 µM (inactive)	> 100 µM (inactive)	18.2 µM (inactive)	> 100 µM (inactive)	> 100 µM (inactive)	> 100 µM (inactive)	–	25.5 µM (inactive)	> 100 µM (inactive)
CC[C@H](CCCC[C@H]1CC[C@@H]2CC(=O)C[C@H]12)OC	> 100 µM (inactive)	60.7 µM (inactive)	> 100 µM (inactive)	> 100 µM (inactive)	> 100 µM (inactive)	60.1 µM (inactive)	31.4 µM (inactive)	–	13 µM (inactive)	> 100 µM (inactive)	> 100 µM (inactive)	> 100 µM (inactive)	> 100 µM (inactive)	95.5 µM (inactive)	–	–	–	> 100 µM (inactive)	65.8 µM (inactive)
CCOc1nc(N)nc(C)c1/N=N/c1ccc(Cl)cc1	> 100 µM (inactive)	41.3 µM (inactive)	0.124 µM (active)	> 100 µM (inactive)	36.9 µM (inactive)	51.6 µM (inactive)	0.649 µM (active)	> 100 µM (inactive)	48.5 µM (inactive)	> 100 µM (inactive)	34.4 µM (inactive)	> 100 µM (inactive)	> 100 µM (inactive)	> 100 µM (inactive)	14.1 µM (inactive)	> 100 µM (inactive)	–	> 100 µM (inactive)	69.7 µM (inactive)
CC1(C)N=C(N)N=C(N)N1c1ccc(OCC(=O)Nc2cccc(S(=O)(=O)F)c2)c(Cl)c1	30 µM (inactive)	5.37 µM (inactive)	12.2 µM (inactive)	7.8 µM (inactive)	13.2 µM (inactive)	–	3.56 µM (inactive)	> 70 µM (inactive)	1.66 µM (inactive)	13.9 µM (inactive)	–	> 81.1 µM (inactive)	4.52 µM (inactive)	13.6 µM (inactive)	8 µM (inactive)	3.71 µM (inactive)	–	7 µM (inactive)	51.8 µM (inactive)
CNc1ccc2c(c1)Cc1ccccc1-2	35.2 µM (inactive)	59.2 µM (inactive)	33.3 µM (inactive)	13.6 µM (inactive)	32.4 µM (inactive)	12.7 µM (inactive)	26.8 µM (inactive)	44.5 µM (inactive)	31.1 µM (inactive)	34.1 µM (inactive)	37.9 µM (inactive)	–	28.3 µM (inactive)	34.4 µM (inactive)	43.8 µM (inactive)	53.6 µM (inactive)	20 µM (inactive)	34.5 µM (inactive)	21.9 µM (inactive)
